Biological target: T1, RISC (Mus musculus, UniProt Q8CJG0)
T1 construct: from tissue; host or cells: liver of female CD-1 mice (5 mm liver punches)
Assay: Quantitation of siRNA bound to RISC (RISC loading) in liver
Format: in vivo, mice
Conditions: siRNA with vinyl phosphonate vs siRNA-I
Protocol: Female CD-1 mice (Charles River) were injected in accordance with either a sequential dosing paradigm or a co-dosing paradigm. In the sequential dosing paradigm, the targeted siRNA (SCE) is dosed at t=0 and the targeted peptide is separately dosed up to 2 hr before the SCE (−2 hr) or up to 24 hr after the SCE (+24 hr). In the co-dosing paradigm, the SCE and peptides are co-formulated and dosed together in the same formulation as a single injection at t=0. The mice were dosed either by intravenous (i.v.) or subcutaneous (s.c.) injection of SCE and peptide. For the i.v. doses, the compounds were injected into the tail vein of the mice. For the s.c. doses, the compounds were injected in the subcutaneous space on the back of the mouse between the shoulder blades. At the indicated harvest times (measured from t=0 when the siRNA was dosed, regardless of when the peptide was dosed), the animals were sacrificed and 3 mm liver punches were collected, preserved in RNAlater (Ambion), and stored at 4° C. Separate 5 mm liver punches were collected, placed in 96-well plates, frozen on dry ice, and stored at −80° C. until use. […]

T1 sequence (Q8CJG0 whole entry): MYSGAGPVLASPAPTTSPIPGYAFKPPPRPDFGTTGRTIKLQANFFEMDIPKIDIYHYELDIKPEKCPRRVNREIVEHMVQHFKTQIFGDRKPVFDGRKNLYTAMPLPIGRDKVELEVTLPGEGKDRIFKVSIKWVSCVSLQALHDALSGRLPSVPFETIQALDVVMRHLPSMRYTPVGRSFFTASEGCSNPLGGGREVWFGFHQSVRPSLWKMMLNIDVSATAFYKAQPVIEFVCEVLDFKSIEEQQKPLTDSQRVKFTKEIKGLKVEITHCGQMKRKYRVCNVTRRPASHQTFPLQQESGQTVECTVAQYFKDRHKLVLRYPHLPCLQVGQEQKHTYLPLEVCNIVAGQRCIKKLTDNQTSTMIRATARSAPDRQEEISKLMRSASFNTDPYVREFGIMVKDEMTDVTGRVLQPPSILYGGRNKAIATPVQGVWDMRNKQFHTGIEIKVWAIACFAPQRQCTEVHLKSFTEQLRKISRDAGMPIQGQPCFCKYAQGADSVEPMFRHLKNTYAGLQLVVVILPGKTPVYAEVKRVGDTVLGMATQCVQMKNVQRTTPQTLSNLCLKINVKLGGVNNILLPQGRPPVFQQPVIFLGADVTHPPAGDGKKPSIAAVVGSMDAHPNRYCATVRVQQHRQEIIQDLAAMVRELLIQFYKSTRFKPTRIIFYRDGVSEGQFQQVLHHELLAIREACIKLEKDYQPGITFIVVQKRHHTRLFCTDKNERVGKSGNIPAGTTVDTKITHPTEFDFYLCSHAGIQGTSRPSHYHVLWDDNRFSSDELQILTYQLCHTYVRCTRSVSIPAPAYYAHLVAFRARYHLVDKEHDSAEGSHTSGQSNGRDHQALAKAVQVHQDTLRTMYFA

## siRNA-III: CTNNB1 siRNA; passenger SEQ ID NO 1803, guide SEQ ID NO 1806 (vinylPmoeT) (sense CUGUUGGAUUGAUUCGAAAUU; guide TUUCGAAUCAAUCCAACAGUU; vinylphosphonate MOE T; (1)..(1) aminohexyl phosphate inverted abasic cap; (1)..(2) 2′-O-methyl; (3)..(3) 2′-deoxy-2′-fluoro; (4)..(5) 2′-O-methyl; (6)..(8) 2′-deoxy-2′-fluoro; (9)..(10) 2′-O-methyl; (11)..(12) 2′-deoxy-2′-fluoro; (13)..(15) 2′-O-methyl; (16)..(19) 2′-deoxy-2′-fluoro; (20)..(21) 2′-O-methyl; (20)..(21) phosphorothioate internucleotide linkage; (21)..(21) inverted abasic cap; (1)..(1) terminal vinyl phosphate; (1)..(1) 2′-methoxyethoxy; (2)..(21) ribonucleotide unmodified or modified as described for this sequence; (2)..(2) 2′-deoxy-2′-fluoro; (3)..(3) 2′-O-methyl; (4)..(4) …)
  Time course of RISC loading (FIG. 5): rate of RISC loading: faster RISC loading
